Assay results from US7091352B2, “Compounds substituted with bicyclic amino groups” (priority 2001, dated 2006).
Read-outs that look alike come from different tables or passages of the source.

What was measured:
TNFα production = test: Inhibition of the production of TNFα in vitro in human whole blood (LPS stimulation, ELISA); assay type: cell-based; conditions: read-out: Inhibitory Effect on TNFα Production IC50
Description: (§1) This test was performed according to the method of Hartman, et al. [D. A. Hartman, S. J. Ochalski and R. P. Carlson; The effects of anti-inflammatory and antiallergic drugs on cytokine release after stimulation of human whole blood by lipopolysaccharide and zymosan A: Inflamm. Res., 44, 269 (1995)].
(§2) Peripheral blood samples were collected in the presence of heparin from healthy adult volunteers. 1000 μl of whole blood were added to an Eppendorf tube to which 2 μl of a dimethyl sulfoxide solution of the test compound had been added in advance, after which 10 μl of lipopolysaccharide (E. coli 026: B6 origin, Difco) were added as a stimulant (final concentration of said lipopolysaccharide: 10 μg/ml). This was mixed well and then incubated for 6 hours at 37° C. in the presence of 5% CO2. At the end of the incubation, the mixture was cooled to 4° C. to stop the reaction, followed immediately by centrifuging for 5 minutes at 14,000 rpm to separate and collect the supernatant plasma. The IL-1β and TNFα produced and released into the plasma were measured using commercially available enzyme immunoassay (ELISA) kits [Cayman (IL-1β) and Genzyme (TNFα)]. […] The inhibitory effect [IC50 (μM)] on the production of IL-1β and TNFα was determined by the method of least squares from the amounts of the cytokines produced in the presence and absence of the test compound.

IL-1β production = test: Inhibition of the production of IL-1β in vitro in human whole blood (LPS stimulation, ELISA); assay type: cell-based; conditions: lipopolysaccharide 10 μg/ml, 6 hours at 37° C., plasma ELISA, read-out: Inhibitory Effect on IL-1β Production IC50
Description: as §1, §2

| SMILES | IC50 (TNFα production; Homo sapiens, 6 h) [nM] | IC50 (TNFα production; human whole blood, lipopolysaccharide 10 μg/ml, 6 hours at 37° C., plasma ELISA) [nM] | IC50 (IL-1β production) [nM] |
| --- | --- | --- | --- |
| CC1C[C@H]2C=C(c3n[nH]c(-c4ccc(F)cc4)c3-c3ccncc3)CCN2C1 (stereo partly drawn) [Example 12, 5-(4-Fluorophenyl)-3-[(8aS)-2-methyl-1,2,3,5,6,8a-hexahydroindolizin-7-yl]-4-(pyridin-4-yl)pyrazole] | 2.6 | – | – |
| OC1(c2n[nH]c(-c3ccc(F)cc3)c2-c2ccncc2)CCN2CCCC2C1 (racemic) [Example 2, (±)-5-(4-Fluorophenyl)-3-(7-hydroxy-1,2,3,5,6,7,8,8a-octahydroindolizin-7-yl)-4-(pyridin-4-yl)pyrazole] | – | 70 | 35 |
